Data on 4 compounds can be found in paper PMC6494845 (Scientific Reports, 2019).

pIC50, pKd: −log10 of the molar value. “And” between values parts separate entries of the source, which are not always exact repeats. Identical values can stand only once.

Details of data set [1]: method as in PMID 19807070. To be noted: cited from earlier work.
The next data set has as its system HIV-1 protease. Further details: method as in PMID 8087563. To be noted: cited from earlier work.
Details of data set [2]: method as in PMID 9278892. As to conditions: cell culture medium containing 10% fetal calf serum and human blood, at 1 h; cited from earlier work.
The target of a further data set is T1, Aβ(1–42) aggregates (Homo sapiens, UniProt P05067).
T1 construct: β-Amyloid(1–42) peptide was purchased from Bachem; purchased Bachem (Torrance, CA, USA)
The data set is described as follows: In vitro binding assay using Aβ(1–42) aggregates (intrinsic fluorescence of the ligands). As to conditions: Aβ(1–42) aggregates 1 μM, PBS, 37 °C, 1 h, ligand fluorescence. On the procedure: Binding constants of the ligands for Aβ(1–42) aggregates were determined using the intrinsic fluorescence of the ligands. The binding constant of CRANAD-2 was also measured for comparison. […] Considering the Kd values and feasibility of ^18F-labeling of all the ligands, ligand 2 was selected for further in vitro and in vivo studies.
Aβ(1–42) aggregates were prepared as described in the literature. Briefly, Aβ(1–42) peptide (200 μM) was dissolved in PBS and stirred gently at 37 °C for 2 d. The Aβ(1–42) aggregate formation was confirmed by thioflavin-T fluorescence assay. In vitro binding assays were carried out using the methods described in the literature with some modifications. Various concentrations of ligands (10–400 nM) were dissolved in DMSO, which were then added to PBS solutions of Aβ(1–42) aggregates (1 μM) charged in 96-well black clear-bottom plates. The final concentration of DMSO in a total volume of solution was 1%. Non-specific binding was determined in the absence of Aβ(1–42) aggregates. The reaction mixtures were incubated at 37 °C for 1 h, after which the fluorescence spectra of the ligands were obtained (excitation 510–560 nm and emission 590–660 nm) using a monochromator multimode microplate reader. All experiments were performed in triplicate. Kd values were determined using GraphPad Prism software 5.

The next data set addresses Aβ(1–40) aggregates. Further details: method as in PMID 19807070. To be noted: cited from earlier work.
Details of data set [3]: method as in PMID 19807070. To be noted: cited from earlier work. The source holds these as a separate data set.
The next data set relates to Aβ aggregates. Further details: method as in PMID 17004725. As to conditions: compared with curcumin; cited from earlier work.
On the set-up of data set [4]: method as in PMID 17004725. To be noted: normal mice; cited from earlier work.

T1 sequence (P05067 672-713): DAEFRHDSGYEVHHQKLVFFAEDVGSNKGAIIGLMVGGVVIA

Take curcumin: in data set [1] (in methanol), the emission is 560 nm and the excitation is reported as 510 nm. Besides, the pIC50 (as a rule, the IC50 on a negative log10 scale, so that one unit is a factor of ten) with HIV-1 protease was 4.00. Moreover, the “stability (% remaining)” value in data set [2] is given as above 80%.
For `CN(C)c1ccc(/C=C/C2=CC(/C=C/c3ccc(N(C)C)cc3)=[O+][B-](F)(F)O2)cc1` [CRANAD-2], the pKd (usually −log10 of the Kd, conventionally taken in molar units) on Aβ(1–42) aggregates is 7.71; on Aβ(1–40) aggregates, 7.41 and 7.42. In addition, in data set [1], the “blue shift when binding to the Aβ aggregates” value is listed as 90 nm. In addition, the emission in data set [1] (in methanol) was 760 nm. The stability in serum result in data set [3] was “stability in the serum”.
Take `COc1cc(/C=C/C(=O)CC(=O)/C=C/c2ccc(OCCCF)c(OC)c2)ccc1O` [4′-O-fluoropropylcurcumin]: in the data set on Aβ aggregates, the “in vitro binding affinity for Aβ aggregates” value was “much higher than that of curcumin”.
For the compound `COc1cc(/C=C/C(=O)CC(=O)/C=C/c2ccc(OCCC[18F])c(OC)c2)ccc1O` [4′-O-[^18F]fluoropropylcurcumin], the brain permeability result in data set [4] is reported as “poor brain permeability”.
